Experimental findings from PMC6240891, “Functional Analysis of Four Terpene Synthases in Rose-Scented Pelargonium Cultivars (Pelargonium × hybridum) and Evolution of Scent in the Pelargonium Genus” (Frontiers in Plant Science, 2018) are described below.

What all share (assay): GC-MS product analysis
Type in all cases: biochemical
Common to all, as to conditions: 10 mM MgCl2, 1 mM MnCl2, pH 7.5, 30°C, 2 h

One experiment concerns the target T1, PhGES (Pelargonium graveolens, UniProt A0A2S1JKY6).
T1 construct: gene GES; full-length (plastid-targeted); E. coli Rosetta (DE3) pLysS; 'Grasse' form lacks the TAL triplet of 'Bourbon' and 'Egypt'
T1 sequence (A0A2S1JKY6 1-555): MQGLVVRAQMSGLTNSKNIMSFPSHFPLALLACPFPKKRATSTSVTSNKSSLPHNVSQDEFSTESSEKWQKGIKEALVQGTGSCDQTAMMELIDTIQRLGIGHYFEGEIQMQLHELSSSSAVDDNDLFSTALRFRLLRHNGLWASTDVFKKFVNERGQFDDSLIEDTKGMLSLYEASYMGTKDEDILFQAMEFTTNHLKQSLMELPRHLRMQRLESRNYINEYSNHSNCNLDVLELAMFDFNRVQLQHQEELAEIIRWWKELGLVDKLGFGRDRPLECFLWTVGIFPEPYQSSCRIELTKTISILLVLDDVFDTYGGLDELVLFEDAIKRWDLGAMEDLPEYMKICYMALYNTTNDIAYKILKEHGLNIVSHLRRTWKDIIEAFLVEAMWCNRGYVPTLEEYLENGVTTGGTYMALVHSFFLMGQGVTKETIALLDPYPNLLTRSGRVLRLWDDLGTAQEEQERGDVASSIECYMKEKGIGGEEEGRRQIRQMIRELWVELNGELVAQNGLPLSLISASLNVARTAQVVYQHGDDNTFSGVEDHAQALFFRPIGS

The next experiment concerns the target T2, PhMYRS (Pelargonium graveolens, UniProt A0A2S1JKZ8).
T2 construct: gene MYRS; full-length (predicted plastid-targeted); E. coli Rosetta (DE3) pLysS
T2 sequence (A0A2S1JKZ8 1-606): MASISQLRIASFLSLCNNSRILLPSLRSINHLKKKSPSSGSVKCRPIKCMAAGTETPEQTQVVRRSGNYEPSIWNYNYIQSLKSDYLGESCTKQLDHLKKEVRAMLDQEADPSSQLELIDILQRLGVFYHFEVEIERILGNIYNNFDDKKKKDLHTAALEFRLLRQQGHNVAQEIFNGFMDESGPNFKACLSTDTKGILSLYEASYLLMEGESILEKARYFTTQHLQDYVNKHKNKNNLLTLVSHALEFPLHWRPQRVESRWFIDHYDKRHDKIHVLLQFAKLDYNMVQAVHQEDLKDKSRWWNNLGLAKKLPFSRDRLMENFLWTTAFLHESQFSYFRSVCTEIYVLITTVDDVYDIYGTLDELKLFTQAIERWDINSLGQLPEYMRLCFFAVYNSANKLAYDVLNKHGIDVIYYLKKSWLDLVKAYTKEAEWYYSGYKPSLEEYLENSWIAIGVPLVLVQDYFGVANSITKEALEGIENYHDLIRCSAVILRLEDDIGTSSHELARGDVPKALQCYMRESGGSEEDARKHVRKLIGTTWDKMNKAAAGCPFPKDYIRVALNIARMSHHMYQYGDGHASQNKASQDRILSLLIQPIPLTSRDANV

Another experiment addresses T3, PhEDS (Pelargonium graveolens, UniProt A0A2S1JKY7).
T3 construct: gene EUS; full-length; E. coli Rosetta (DE3) pLysS
T3 sequence (A0A2S1JKY7 1-567): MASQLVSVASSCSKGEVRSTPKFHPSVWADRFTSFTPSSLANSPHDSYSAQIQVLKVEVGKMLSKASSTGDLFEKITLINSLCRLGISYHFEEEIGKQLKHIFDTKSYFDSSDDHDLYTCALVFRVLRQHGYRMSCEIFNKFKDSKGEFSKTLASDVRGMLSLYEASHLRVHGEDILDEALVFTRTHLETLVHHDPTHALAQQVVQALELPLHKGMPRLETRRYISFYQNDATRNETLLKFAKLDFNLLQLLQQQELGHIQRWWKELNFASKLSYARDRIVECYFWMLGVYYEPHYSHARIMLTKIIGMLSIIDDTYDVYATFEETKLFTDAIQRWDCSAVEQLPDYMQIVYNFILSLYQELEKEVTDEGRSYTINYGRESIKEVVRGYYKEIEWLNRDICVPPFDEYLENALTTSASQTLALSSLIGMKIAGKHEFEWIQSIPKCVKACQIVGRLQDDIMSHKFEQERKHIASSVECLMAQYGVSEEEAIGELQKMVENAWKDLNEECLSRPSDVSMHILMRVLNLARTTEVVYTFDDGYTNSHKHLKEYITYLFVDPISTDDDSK

For `CC(C)=CCC/C(C)=C/COP(=O)(O)OP(=O)(O)O` [GPP], the GC-MS product analysis result is on record as “PhGES (MF503883) produced uniquely geraniol in presence of GPP as a substrate” on PhGES (50 µM) and “PhMYRS (MF503884) used GPP to produce β-myrcene as major compound” at PhMYRS (50 µM).
As for `CC(C)=CCC/C(C)=C/CC/C(C)=C/COP(=O)(O)OP(=O)(O)O` [FPP], the GC-MS product analysis entry at PhEDS (50 µM) is “PhEDS (MF503882) produced 10-epi-γ-eudesmol and α-eudesmol as major and minor products, respectively, after incubation with FPP”.
As for `C=CC(=C)CCC=C(C)C` [β-myrcene], the GC-MS product analysis result on PhMYRS (major product from GPP) is recorded as “PhMYRS (MF503884) used GPP to produce β-myrcene as major compound”.
Turning to `CC(C)=CCC/C(C)=C/CO` [geraniol], on PhGES (sole product from GPP), the GC-MS product analysis result was “PhGES (MF503883) produced uniquely geraniol in presence of GPP as a substrate”.
On to `CC1=C2CC(C(C)(C)O)CCC2(C)CCC1` (stereo not drawn) [10-epi-γ-eudesmol], for which the GC-MS product analysis result at PhEDS (major product from FPP) is “PhEDS (MF503882) produced 10-epi-γ-eudesmol and α-eudesmol as major and minor products”.
